The text below walks through data of patent publication US11091786B2, “Butelase-mediated peptide ligation” (Nanyang Technological University, priority 2015, dated 2021).

Values after ≈ are worked out from the molar mass of the structure shown. Numbered stars: 1 amine (or outer) side, 2 acyl side, 3 side chain; on linkers, the order of the positions; unused ones are H or OH. Bridge positions count the residues as written; N and C are the ends. Square brackets hold non-standard residues; d marks the D form. Side chains are listed from the residue outwards. Ends that are not written are not given here. Peptide text beside a SMILES is read from it. I, II: the chains in the order shown. X1 = O=C(CO[*:1])[*:2]; βAla = NCCC(=O)O

One series concerns E. coli. The series is classed as cell-based. The protocol:
(§1) The materials for radial diffusion assay were prepared as following:
(§2) Trypticase soy broth (TSB): Full-strength broth contains 30 grams of TSB powder per liter of deionized water. It was autoclaved at 120° C. for 20 min and stored at room temperature.
(§3) Underlay gel: 50 mL of […] sodium phosphate buffer, 5 ml full-strength TSB and 5 g agarose were mixed in a beaker followed by addition of deionized water to 500 mL. The medium was autoclaved at 120° C. for 20 min. Before use, it was maintained at 42° C. to prevent from solidifying.
(§4) Overlay gel: One liter of overlay gel contains 60 g of TSB powder and 10 g of agarose. The medium was autoclaved at 120° C. for 20 min. To prevent from solidifying, it was maintained at 42° C. before use.
(§5) The following protocol was applied to the radial diffusion assay.
(§6) 1. A single colony was picked and transferred into a 5 ml tube containing 2.5 ml TSB. The culture was shaken at 37° C. for 18 h.
(§7) 2. 50 μl of the stationary phase culture was diluted to 2.5 mL of autoclaved TSB (1:50 dilution) and shaken at 37° C. for another 3 h.
(§8) 3. This subculture was centrifuged at 5000 rpm for 5 min and the supernatant was discarded. The residual cells were washed with cold sterile 10 mM phosphate buffer, pH 7.4 and the buffer was discarded after centrifuge. 5 ml of the same buffer was added to resuspend the cells and its bacteria concentration was determined by measuring its optical density at 620 nm.
(§9) 4. 10 ml of antoclaved, molten underlay gel agar was transferred to a 15-ml eppendorf tube and mixed with 4×10^6 CFU of bacteria by vortexing. The mixture was then poured into a petri dish and gelled in less than […]. Wells were punched against the gel using a Pasteur pippette.
(§10) 5. Peptides to be tested were serially diluted and 3.5 μl of each sample was added to the well. The plates were incubated at 37° C. for 3 h with gel-side up.
(§11) 6. Next, each underlay gel was covered with 10 ml of overlay gel. After the gel solidified, the plates were turned gel-side up and incubated at 37° C. for overnight.
(§12) 7. The following morning, all the plates were taken out and the zone diameters were measured with ruler. All the samples were tested in duplicates and the results were averaged. The final minimum inhibition concentration (MIC) was determined using excel.
(§13) There is a growing interest to develop peptide-based antibiotics (Annu Rev Immunol. 1995, 13, 61-92; J Intern Med. 2003, 254, 197-215; Cent Eur J Biol 2007, 2, 1-33; Int J Pept Res Ther. 2010, 16, 199-213) because, compared with conventional antibiotics, they are less likely to develop drug resistance and have fewer side effects (J Med Chem. 2015, 58, 6533-6548; Biochemistry-Us. 2000, 39, 7159-7169; Eur J Biochem. 2000, 267, 3289-3300; Nucleic Acids Res. 2012, 40, W199-204). To apply the presently disclosed enzymatic method in preparing dendrimeric antimicrobials, inventors synthesized two antimicrobials 12 (bivalent) and 13 (tetravalent) (MS shown in supporting information) which harbored a tetrapeptide RLYR (SEQ ID NO:121) as the antibacterial sequence (Eur J Biochem. 2002, 269, 923-932) by ligating N-acetylated thiodepsipeptide 10 Ac-RLYRN-thioglc-V (SEQ ID NO:120) with dendron core 2 and 6 respectively. The RLYR (SEQ ID NO:121) tetrapeptide contains a BHHB motif (B=basic, H=hydrophobic) which is commonly found in certain potent and broad-spectrum β-stranded antimicrobial peptides (BioDrugs. 2013, 27, 479-493) such as PG (protegrins) (Febs Lett. 1993, 327, 231-236) and RTD-1 (rhesus monkey theta defensin) (Science. 1999, 286, 498-502). This consensus motif with positive charged and hydrophobic residues was successfully used as a dendrimeric antimicrobial in 2002 (Eur J Biochem. 2002, 269, 923-932). Such short peptide-based dendrimeric antimicrobials are broad-spectrum antibiotics and kill bacterial cells through electrostatic and hydrophobic interactions with the negatively charged microbial cytoplasmic membranes (Biochemistry-Us. 2009, 48, 5642-5657). […]

The next series has as its system S. aureus. In kind it is cell-based. On the procedure:
as §1, §2, §3, §4, §5, §6, §7, §8, §9, §10, §11, §12, §13

The subject of series [1] is butelase 1. Description: Butelase-mediated ligation kinetic characterization (Lineweaver-Burk). Conditions: 0.1 μM butelase 1, 1 mM GIGGIR, peptide 25 to 400 μM, pH 6.5, 42° C. The series is classed as biochemical, Clitoria ternatea. The protocol: Ligation assays were performed in 50-μl mixtures containing reaction buffer (1 mM EDTA, 20 mM phosphate buffer, pH 6.5), 0.1 […] butelase 1, 1 mM GIGGIR (SEQ ID NO:114) and varying concentrations of peptides 1-4 (25 to 400 μM). The reactions were performed in triplicate at 42° C. and quenched by adding 5 μl of 1 M HCl solution. The peptides were separated by using a reversed-phase C18 analytical column (150×2.1 mm, Vydac) with a linear gradient from 5% to 40% acetonitrile over 15 min on a Nexera UHPLC system (Shimadzu). The ligation velocities were calculated by converting the HPLC-peak areas of remained linear precursors or the ligated products into concentrations. The identity of each HPLC peak was analyzed by MALDI-TOF MS (ABI 4800 MALDI TOF/TOF). The kinetic parameters (kcat and Km) for each peptide were obtained by the LineweaverBurk plot.

Series [2] in a line: Degradation time course of peptide in reaction buffer without butelase 1 (HPLC). The conditions noted are these: absence of butelase 1, peptide 100 μM, 42° C. The series is classed as physicochemical. On the procedure:
(§14) FIG. 9. Degradation time course for thiodepsipeptide 1 and depsipeptide 2. Each peptide (100 μM) was incubated in the absence or presence of butelase 1 (50 nM) at 42° C. The peptide stability was monitored by HPLC every […].
(§15) To apply butelase 1 for N-terminal labeling of proteins, inventors used ubiquitin and green fluorescent protein (GFP) as examples (FIG. 4). Since butelase 1 prefers a hydrophobic amino acid (Ile/Leu/Val) or Cys at the P2″ position of an acceptor nucleophile, inventors prepared a recombinant ubiquitin protein (SEQ ID NO:122) with Gly-Ile at the N-terminus and His-tag at the C-terminus. It was also examined whether this method would work if His-tag was located at the N-terminus. Inventors thus prepared a recombinant GFP (SEQ ID NO:123) with an additional Ile inserted between the start codon and the N-terminal His-tag. Both proteins were labeled with the model thiodepsipeptide 1 in the presence of 0.001 molar equivalent of butelase 1. The labeling of proteins was slower as compared to the labeling of peptide 5, probably due to large differences in size between the model peptide and proteins. Furthermore, the N-terminal amino group of proteins may have a lower accessibility to butelase 1 as compared to peptides. […]

In series [3] the test system is butelase 1. As to the kind of experiment: Degradation time course of peptide in the presence of butelase 1 (HPLC). The conditions noted are these: Clitoria ternatea, butelase 1 in reaction buffer, presence of 0.0005 molar equivalent of butelase 1 (50 nM), peptide 100 μM, 42° C. The series is classed as biochemical. On the procedure:
as §14, §15

Series [4] has as its system butelase 1. The conditions noted are these: highest reported value; cited from earlier work.

A word on the MIC: it is the lowest concentration that inhibits growth of the organism. A lower MIC goes with inhibition by little substance. For `CC[C@H](C)[C@H](NC(=O)[C@@H](N)CCCNC(=N)N)C(=O)NCCC(=O)NCCCC[C@H](NC(=O)CCNC(=O)[C@@H](NC(=O)[C@@H](N)CCCNC(=N)N)[C@@H](C)CC)C(=O)N[C@@H](Cc1ccc(O)cc1)C(N)=O` [Bivalent dendron core 2, (RIβA)2KY] (H-RI[βAla]K([βAla-Ile-Arg])Y-NH2; N-terminus assumed), the MIC with E. coli and against S. aureus was more than 150 µM in each case.

Regarding `CC[C@H](C)[C@H](NC(=O)[C@H](CCCNC(=N)N)NC(=O)[C@H](CC(N)=O)NC(=O)[C@H](CCCNC(=N)N)NC(=O)[C@H](Cc1ccc(O)cc1)NC(=O)[C@H](CC(C)C)NC(=O)[C@H](CCCNC(=N)N)NC(C)=O)C(=O)NCCC(=O)NCCCC[C@H](NC(=O)CCNC(=O)[C@@H](NC(=O)[C@H](CCCNC(=N)N)NC(=O)[C@H](CC(N)=O)NC(=O)[C@H](CCCNC(=N)N)NC(=O)[C@H](Cc1ccc(O)cc1)NC(=O)[C@H](CC(C)C)NC(=O)[C@H](CCCNC(=N)N)NC(C)=O)[C@@H](C)CC)C(=O)N[C@@H](Cc1ccc(O)cc1)C(N)=O` [Dimer 12, (Ac-RLYRNRIβA)2KY] (I: Ac-RLYRNRI[βAla]KY-NH2 / II: Ac-RLYRNRI[βAla]; amide I:9-II:C), the MIC in the series with E. coli stood at 18.3 µM (≈ 45.4 µg/mL); against S. aureus, 3.4 µM (≈ 8.43 µg/mL).

For `CC(C)C[C@H](NC(=O)[C@@H](N)CCCNC(=N)N)C(=O)N[C@@H](Cc1ccc(O)cc1)C(=O)N[C@@H](CCCNC(=N)N)C(N)=O` [Monomer 11, RLYR, reference compound] (H-RLYR-NH2; N-terminus assumed), the MIC in the series on E. coli and in the series on S. aureus was more than 300 µM each time. Further, the “antimicrobial activity (in words)” value was “no appreciable activity” with E. coli (E. coli, high-salt condition (100 mM NaCl)) and “no appreciable activity” in the series on S. aureus (S. aureus, high-salt condition (100 mM NaCl)).

A word on the Km: it is the concentration of substrate that gives half-maximal velocity. What is called kcat is the number of substrate molecules converted per active site and unit of time at saturation. As a reminder, the half-life is the time needed for the level to fall by half in the phase considered. For `CC(C)[C@H](NC(=O)CSC(=O)[C@H](CC(N)=O)NC(=O)[C@H](CCCCN)NC(=O)[C@@H](N)Cc1ccc(O)cc1)C(N)=O` [Peptide 1, YKN(S)GV], in the series with butelase 1 [1], the Km was determined as 2760 ± 300 µM and the kcat is 56.5 ± 7.5 s⁻¹. Further, the half-life at 100 μM in series [2] was approximately 75 min. The half-life at 100 μM with butelase 1 [3] was 40 min.

As for `CC(C)[C@H](NC(=O)COC(=O)[C@H](CC(N)=O)NC(=O)[C@H](CCCCN)NC(=O)[C@@H](N)Cc1ccc(O)cc1)C(N)=O` [Peptide 2, YKN(O)GV] (H-YKN[X1]V-NH2; N-terminus assumed), in the series with butelase 1 [1], the Km is 740 ± 10 µM and the kcat turned out to be 12.4 ± 0.32 s⁻¹. Also, in series [2], the half-life at 100 μM was 45 min. Moreover, the half-life at 100 μM with butelase 1 [3] came out at 37 min.

With `CC[C@H](C)[C@H](NC(=O)[C@@H](N)CCCNC(=N)N)C(=O)NCCC(=O)NCCCC[C@H](NC(=O)CCNC(=O)[C@@H](NC(=O)[C@@H](N)CCCNC(=N)N)[C@@H](C)CC)C(=O)NCCCC[C@H](NC(=O)[C@H](CCCCNC(=O)CCNC(=O)[C@@H](NC(=O)[C@@H](N)CCCNC(=N)N)[C@@H](C)CC)NC(=O)CCNC(=O)[C@@H](NC(=O)[C@@H](N)CCCNC(=N)N)[C@@H](C)CC)C(=O)N[C@@H](Cc1ccc(O)cc1)C(N)=O` [Tetravalent dendron core 6, (RIβA)4K2KY], the MIC against E. coli and against S. aureus was more than 150 µM in each case.

“YKNGV (not fully specified (C-terminus)) [Peptide 4]”: in the series on butelase 1 [1], the Michaelis-Menten constant (Km) came to 880 ± 80 µM and the turnover number (kcat) came to 7.9 ± 0.72 s⁻¹.

Consider “YKNHV (not fully specified (C-terminus)) [Peptide 3]”, for which, in the series on butelase 1 [1], the Michaelis-Menten constant (Km) stood at 300 ± 10 µM and the catalytic constant (kcat) worked out at 4.1 ± 0.65 s⁻¹.

B1: Butelase 1: Asn/Asp(Asx)-specific ligase isolated from the medicinal plant Clitoria ternatea (SEQ ID NO:1) (protein, listed as Clitoria ternatea)
chain: VEGTRWAVLVAGSKGYVNYRHQADVCHAYQILKKGGLKDENIIVFMYDDIAYNESNPHPGVIINHPYGSDVYKGVPKDYVGEDINPPNFYAVLLANKSALTGTGSGKVLDSGPNDHVFIYYTDHGGAGVLGMPSKPYIAASDLNDVLKKKHASGTYKSIVFYVESCESGSMFDGLLPEDHNIYVMGASDTGESSWVTYCPLQHPSPPPEYDVCVGDLFSVAWLEDCDVHNLQTETFQQQYEVVKNKTIVALIEDGTHVVQYGDVGLSKQTLFVYMGTDPANDNNTFTDKNSLGTPRKAVSQRDADLIHYWEKYRRAPEGSSRKAEAKKQLREVMAHRMHIDN
For the molecule B1, the catalytic efficiency entry in the series on butelase 1 [4] is reported as “up to 542,000 M^−1 s^−1”.
